Read-outs that look alike come from different tables or passages of the source.
Legend:
[1] = target: T1, muscle-type nAChR (α1β1γδ- or α1*-nAChR) (Homo sapiens, UniProt P02708+P07510+P11230+Q07001); experiment: 86Rb+ efflux nAChR functional assay, TE671/RD cells; assay type: cell-based; settings: parentheses = S.E.M. as multiplication/division factor
T1 construct: Cells of the TE671/RD line naturally expresses muscle-type nAChR; endogenous in cells; host or cells: TE671/RD cells
Description: (§1) Cell Lines and Culture: Human embryonic kidney (HEK-293) cells stably expressing human DAT, NET or SERT were maintained as previously described in Eshleman, A. J.; Carmolli, M.; Cumbay, M.; Martens, C. R.; Neve, K. A.; Janowsky, A., J. Pharmacol. Exp. Ther. 1999, 289, (2), 877-885. Use was made of several human cell lines that naturally or heterologously express specific, functional, human nAChR subtypes. Cells of the TE671/RD line naturally expresses muscle-type nAChR (a1β1γδ- or α1*-nAChR), and SH-SY5Y neuroblastoma cells naturally expresses autonomic α3β4*-nAChRs (containing α3, β4, probably α5, and sometimes β2 subunits). Different clones of SH-EP1 epithelial cell lines have been engineered to heterologously express either α4β2-nAChR, which are thought to be the most abundant, high affinity nicotine-binding nAChR in mammalian brain, or α4β4-nAChR, another possible brain nAChR subtype (SH-EP1-hα4β2 or α4β4 cells, respectively). These cells were maintained as low passage number (1-26 from our frozen stocks) cultures to ensure stable expression of native or heterologously-expressed nAChR as previously described (see Lukas, R. J.; Fryer, J. D.; Eaton, J. B.; L., G. C., Some methods for studies of nicotinic acetylcholine receptor pharmacology, in Nicotinic receptors and the Nervous System, Levine, E. D., Ed. CRC Press: Boca Raton, 2002; pp 3-27, incorporated herein by reference in its entirety). Cells were passaged once weekly by splitting just-confluent cultures 1/300 (TE671/RD), 1/5 (SH-SY5Y), or 1/20 (transfected SH-EP1) in serum-supplemented medium to maintain log-phase growth.
(§2) After cells had adhered (generally overnight, but no sooner than 4 h later), the medium was removed and replaced with 250 μL per well of complete medium supplemented with ˜350,000 cpm of ^86Rb^+ (PerkinElmer Life and Analytical Sciences, Boston, Mass.) and counted at 40% efficiency using Cerenkov counting (TriCarb 1900 liquid scintillation analyzer[…]; PerkinElmer Life Sciences).
(§3) After at least 4 h and typically overnight, ^86Rb^+ efflux was measured using the “flip-plate” technique. See Lukas, R. J.; Fryer, J. D.; Eaton, J. B.; L., G. C., Some methods for studies of nicotinic acetylcholine receptor pharmacology, in Nicotinic receptors and the Nervous System, Levine, E. D., Ed. CRC Press: Boca Raton, 2002; pp 3-27, incorporated herein by reference in its entirety). Briefly, after aspiration of the bulk of ^86Rb^+ loading medium from each well of the “cell plate,” each well containing cells was rinsed 3× with 2 mL of fresh ^86Rb^+ efflux buffer (130 mM NaCl, 5.4 mM KCl, 2 mM CaCl2, 5 mM glucose, 50 mM HEPES, pH 7.4) to remove extracellular ^86Rb^+. Following removal of residual rinse buffer by aspiration, the flip-plate technique was used again to simultaneously introduce 1.5 mL of fresh efflux buffer containing drugs of choice at indicated final concentrations from a 24-well “efflux/drug plate” into the wells of the cell plate. After a 5 min incubation, the solution was “flipped” back into the efflux/drug plate, and any remaining buffer in the cell plate was removed by aspiration. Cells remaining in the cell plate were lysed and suspended by addition of 1.5 mL of 0.1 M NaOH, 0.1% sodium dodecyl sulfate to each well.
(§4) Similarly, the sum of ^86Rb^+ in cell plates and efflux/drug plates also determined the efficiency of ^86Rb^+ loading (the percentage of applied ^86Rb^+ actually loaded into cells).
(§5) Specific efflux was then taken as the difference in control samples between total and non-specific ^86Rb^+ efflux. Any intrinsic agonist activity of test drugs was ascertained using samples containing test drug only at different concentrations and was normalized, after subtraction of non-specific efflux, to specific efflux in test drug-free, control samples.

[2] = system: Male Institute of Cancer Research (ICR) mice; experiment: Locomotor activity, antagonism of nicotine effect; assay type: in vivo; settings: for AD50 Locomotion: pretreatment 15 min before nicotine […] s.c.; for ED50: Mus musculus, pretreatment 15 min before nicotine 1.5 mg/kg s.c., read-out: AD50 Locomotion
Description: Animals: Male Institute of Cancer Research (ICR) mice (weighing 20-25 g) obtained from Harlan (Indianapolis, Ind.) were used throughout the study. Animals were housed in an Association for Assessment and Accreditation of Laboratory Animal Care-approved facility, were placed in groups of six, and had free access to food and water. Studies were approved by the Institutional Animal Care and Use Committee of Virginia Commonwealth University.
Locomotor Activity: Mice were placed into individual Omnitech photocell activity cages (28×16.5 cm; Omnitech Electronics, Columbus, Ohio) 5 min after subcutaneous administration of either 0.9% saline or nicotine (1.5 mg/kg). Interruptions of the photocell beams (two banks of eight cells each) were then recorded for the next 10 min. Data were expressed as the number of photocell interruptions.

[3] = target: T2, α4β2-nAChR (Homo sapiens, UniProt P17787+P43681); experiment: 86Rb+ efflux nAChR functional assay, SH-EP1-hα4β2 cells; assay type: cell-based
T2 construct: expressed in transfected cells; host or cells: SH-EP1 epithelial cells (SH-EP1-hα4β2)
Description: as §1, §2, §3, §4, §5

[4] = target: T3, α4β4-nAChR (Homo sapiens, UniProt P30926+P43681); experiment: 86Rb+ efflux nAChR functional assay, SH-EP1-hα4β4 cells; assay type: cell-based; settings: EC80-EC90 carbamylcholine, parentheses = S.E.M. as multiplication/division factor, read-out: nAChR inhibition IC50 α4β4
T3 construct: expressed in transfected cells; host or cells: SH-EP1 epithelial cells (SH-EP1-hα4β4)
Description: as §1, §2, §3, §4, §5

[5] = target: T4, NE transporters [h(NET)] (Homo sapiens, UniProt P23975); experiment: Inhibition of [3H]norepinephrine uptake into HEK293 cells stably expressing hNET; assay type: cell-based; settings: for selectivity for inhibition of NE over DA uptake: ratio of uptake IC50 values
T4 construct: expressed in transfected cells; host or cells: HEK-293
Description: as §1
See, for example, Damaj, M. I.; Carroll, F. I.; Eaton, J. B.; Navarro, H. A.; Blough, B. E.; Mirza, S.; Lukas, R. J.; Martin, B. R., Mol. Pharmacol. 2004, 66, (3), 675-682 and Eshleman, A. J.; Carmolli, M.; Cumbay, M.; Martens, C. R.; Neve, K. A.; Janowsky, A., J. Pharmacol. Exp. Ther. 1999, 289, (2), 877-885, both incorporated by reference herein in their entireties.

[6] = target: T5, α3β4*-nAChR (Homo sapiens, UniProt P30926+P32297); experiment: 86Rb+ efflux nAChR functional assay, SH-SY5Y cells; assay type: cell-based; settings: EC80-EC90 carbamylcholine; SH-SY5Y; parentheses = S.E.M. as multiplication/division factor; read-out: nAChR inhibition IC50 α3β4±
T5 construct: other: EC80-EC90 carbamylcholine; SH-SY5Y; parentheses = S.E.M. as multiplication/division
Description: as §1, §2, §3, §4, §5

[7] = EC80-EC90 carbamylcholine, read-out: nAChR inhibition IC50 α1*β1
[8] = nAChR inhibition IC50 α1*β1, EC80-EC90 carbamylcholine
[9] = EC80-EC90 carbamylcholine, SH-EP1-hα4β2, parentheses = S.E.M. as multiplication/division factor, read-out: nAChR inhibition IC50 α4β2
[10] = HEK293-hNET, mean ± standard error of three independent experiments, read-out: monoamine uptake inhibition IC50 [3H]NE

T2 sequence (P43681 29-627 limits assumed): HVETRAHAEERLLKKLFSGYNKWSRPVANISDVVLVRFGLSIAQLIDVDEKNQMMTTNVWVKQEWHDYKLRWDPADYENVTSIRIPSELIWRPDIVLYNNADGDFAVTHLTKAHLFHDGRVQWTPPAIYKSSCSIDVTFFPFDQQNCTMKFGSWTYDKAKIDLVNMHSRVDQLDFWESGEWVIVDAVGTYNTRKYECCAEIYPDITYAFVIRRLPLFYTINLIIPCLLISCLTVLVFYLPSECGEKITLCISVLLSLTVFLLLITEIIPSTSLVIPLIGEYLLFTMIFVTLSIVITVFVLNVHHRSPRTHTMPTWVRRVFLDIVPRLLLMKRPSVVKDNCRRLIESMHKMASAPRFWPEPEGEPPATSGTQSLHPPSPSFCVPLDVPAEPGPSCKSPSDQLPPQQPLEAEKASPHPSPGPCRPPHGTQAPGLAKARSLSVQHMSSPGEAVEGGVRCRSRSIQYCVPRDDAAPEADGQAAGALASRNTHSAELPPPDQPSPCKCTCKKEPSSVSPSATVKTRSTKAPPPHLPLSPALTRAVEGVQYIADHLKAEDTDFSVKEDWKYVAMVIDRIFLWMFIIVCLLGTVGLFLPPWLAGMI
T2 sequence (P17787 26-502): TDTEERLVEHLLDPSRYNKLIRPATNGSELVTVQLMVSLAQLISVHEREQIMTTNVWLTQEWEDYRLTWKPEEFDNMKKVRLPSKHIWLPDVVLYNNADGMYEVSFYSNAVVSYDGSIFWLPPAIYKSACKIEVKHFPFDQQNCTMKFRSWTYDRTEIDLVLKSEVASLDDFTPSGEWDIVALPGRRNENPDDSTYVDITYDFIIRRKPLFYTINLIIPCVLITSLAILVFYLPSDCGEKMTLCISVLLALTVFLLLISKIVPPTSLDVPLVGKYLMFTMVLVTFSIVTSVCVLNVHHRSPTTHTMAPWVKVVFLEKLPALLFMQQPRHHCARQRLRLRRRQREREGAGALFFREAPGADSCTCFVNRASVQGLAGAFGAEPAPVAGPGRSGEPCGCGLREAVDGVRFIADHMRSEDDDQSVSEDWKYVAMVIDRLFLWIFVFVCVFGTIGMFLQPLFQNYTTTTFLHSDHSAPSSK
T3 sequence (P43681 29-627 limits assumed): as the sequence (P43681 29-627 limits assumed) above
T3 sequence (P30926 22-498): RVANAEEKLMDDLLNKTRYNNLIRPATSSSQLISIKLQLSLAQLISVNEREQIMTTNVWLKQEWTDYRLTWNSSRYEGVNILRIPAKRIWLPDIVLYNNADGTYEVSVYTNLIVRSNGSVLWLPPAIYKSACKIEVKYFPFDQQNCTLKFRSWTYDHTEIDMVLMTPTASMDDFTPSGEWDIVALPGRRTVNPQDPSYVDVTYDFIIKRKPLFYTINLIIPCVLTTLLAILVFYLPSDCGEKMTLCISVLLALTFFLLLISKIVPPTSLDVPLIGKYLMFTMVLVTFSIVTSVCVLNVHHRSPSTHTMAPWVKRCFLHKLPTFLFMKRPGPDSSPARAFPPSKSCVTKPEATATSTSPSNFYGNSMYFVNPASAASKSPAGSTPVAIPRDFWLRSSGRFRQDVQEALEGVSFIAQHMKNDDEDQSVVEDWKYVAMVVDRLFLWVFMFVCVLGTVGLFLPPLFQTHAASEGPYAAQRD
T5 sequence (P32297 32-505): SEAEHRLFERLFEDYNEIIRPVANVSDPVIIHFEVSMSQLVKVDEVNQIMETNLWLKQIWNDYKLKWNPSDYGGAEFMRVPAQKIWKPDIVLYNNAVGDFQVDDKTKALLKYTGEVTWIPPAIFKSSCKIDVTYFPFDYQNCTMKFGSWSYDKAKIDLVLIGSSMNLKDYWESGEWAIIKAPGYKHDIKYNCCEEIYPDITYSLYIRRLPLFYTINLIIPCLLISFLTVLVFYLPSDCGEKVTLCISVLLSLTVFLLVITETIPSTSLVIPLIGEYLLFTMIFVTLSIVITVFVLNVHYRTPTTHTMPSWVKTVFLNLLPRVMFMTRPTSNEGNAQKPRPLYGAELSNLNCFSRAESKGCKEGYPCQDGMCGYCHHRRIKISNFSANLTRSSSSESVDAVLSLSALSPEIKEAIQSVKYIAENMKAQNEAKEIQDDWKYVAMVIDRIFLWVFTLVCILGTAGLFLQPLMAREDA
T5 sequence (P30926 22-498): as the sequence (P30926 22-498) above
T1 sequence (P02708 21-457): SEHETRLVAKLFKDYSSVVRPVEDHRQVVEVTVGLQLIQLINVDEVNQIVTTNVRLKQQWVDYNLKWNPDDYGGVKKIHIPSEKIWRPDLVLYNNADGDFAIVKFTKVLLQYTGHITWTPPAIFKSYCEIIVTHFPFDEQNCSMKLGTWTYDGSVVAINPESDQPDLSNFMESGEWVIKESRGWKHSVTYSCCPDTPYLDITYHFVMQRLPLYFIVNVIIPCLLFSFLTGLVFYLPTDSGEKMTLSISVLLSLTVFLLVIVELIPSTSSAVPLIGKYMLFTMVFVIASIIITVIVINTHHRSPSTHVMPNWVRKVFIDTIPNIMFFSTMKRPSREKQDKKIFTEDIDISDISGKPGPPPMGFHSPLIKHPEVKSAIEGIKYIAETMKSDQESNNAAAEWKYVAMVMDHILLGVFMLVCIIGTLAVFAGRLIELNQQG
T1 sequence (P11230 24-501): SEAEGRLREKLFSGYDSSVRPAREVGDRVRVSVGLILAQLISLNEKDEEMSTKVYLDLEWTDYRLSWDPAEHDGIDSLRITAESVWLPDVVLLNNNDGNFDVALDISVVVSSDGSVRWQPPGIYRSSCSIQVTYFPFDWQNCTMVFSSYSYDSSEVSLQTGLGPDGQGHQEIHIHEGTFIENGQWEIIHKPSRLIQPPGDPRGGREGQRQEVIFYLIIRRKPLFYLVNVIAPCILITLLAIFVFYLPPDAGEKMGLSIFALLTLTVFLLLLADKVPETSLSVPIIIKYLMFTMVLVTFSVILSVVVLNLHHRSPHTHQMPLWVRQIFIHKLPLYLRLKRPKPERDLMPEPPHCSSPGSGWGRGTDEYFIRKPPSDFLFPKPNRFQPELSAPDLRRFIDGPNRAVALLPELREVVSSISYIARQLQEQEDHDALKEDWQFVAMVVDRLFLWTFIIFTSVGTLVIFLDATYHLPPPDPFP
T1 sequence (P07510 23-517): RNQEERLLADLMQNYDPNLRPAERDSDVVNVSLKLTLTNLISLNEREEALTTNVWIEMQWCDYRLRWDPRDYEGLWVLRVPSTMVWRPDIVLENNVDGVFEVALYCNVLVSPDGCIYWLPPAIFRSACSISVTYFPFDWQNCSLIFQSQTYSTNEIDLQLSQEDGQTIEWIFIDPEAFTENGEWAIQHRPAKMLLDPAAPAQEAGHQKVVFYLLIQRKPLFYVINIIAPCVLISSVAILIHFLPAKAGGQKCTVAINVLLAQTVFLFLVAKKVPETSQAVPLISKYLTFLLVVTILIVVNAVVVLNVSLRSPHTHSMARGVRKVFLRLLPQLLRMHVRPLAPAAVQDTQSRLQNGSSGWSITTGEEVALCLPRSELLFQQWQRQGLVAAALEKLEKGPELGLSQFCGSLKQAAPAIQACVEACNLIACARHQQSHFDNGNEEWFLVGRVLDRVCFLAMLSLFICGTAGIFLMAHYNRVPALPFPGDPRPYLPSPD
T1 sequence (Q07001 22-517): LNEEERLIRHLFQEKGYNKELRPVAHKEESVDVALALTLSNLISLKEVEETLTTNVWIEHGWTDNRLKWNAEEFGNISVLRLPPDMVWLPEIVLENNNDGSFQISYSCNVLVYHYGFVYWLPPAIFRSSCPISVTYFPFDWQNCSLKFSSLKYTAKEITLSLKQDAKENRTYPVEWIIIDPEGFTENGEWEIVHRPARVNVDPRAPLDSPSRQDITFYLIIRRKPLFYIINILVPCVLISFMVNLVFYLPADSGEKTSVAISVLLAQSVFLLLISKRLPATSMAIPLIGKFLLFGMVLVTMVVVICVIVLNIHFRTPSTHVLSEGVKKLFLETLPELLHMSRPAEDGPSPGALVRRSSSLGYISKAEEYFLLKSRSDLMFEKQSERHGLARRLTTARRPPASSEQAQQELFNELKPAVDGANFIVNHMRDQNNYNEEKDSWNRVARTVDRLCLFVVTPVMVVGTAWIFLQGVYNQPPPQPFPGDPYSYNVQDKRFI
T4 sequence (P23975 whole entry): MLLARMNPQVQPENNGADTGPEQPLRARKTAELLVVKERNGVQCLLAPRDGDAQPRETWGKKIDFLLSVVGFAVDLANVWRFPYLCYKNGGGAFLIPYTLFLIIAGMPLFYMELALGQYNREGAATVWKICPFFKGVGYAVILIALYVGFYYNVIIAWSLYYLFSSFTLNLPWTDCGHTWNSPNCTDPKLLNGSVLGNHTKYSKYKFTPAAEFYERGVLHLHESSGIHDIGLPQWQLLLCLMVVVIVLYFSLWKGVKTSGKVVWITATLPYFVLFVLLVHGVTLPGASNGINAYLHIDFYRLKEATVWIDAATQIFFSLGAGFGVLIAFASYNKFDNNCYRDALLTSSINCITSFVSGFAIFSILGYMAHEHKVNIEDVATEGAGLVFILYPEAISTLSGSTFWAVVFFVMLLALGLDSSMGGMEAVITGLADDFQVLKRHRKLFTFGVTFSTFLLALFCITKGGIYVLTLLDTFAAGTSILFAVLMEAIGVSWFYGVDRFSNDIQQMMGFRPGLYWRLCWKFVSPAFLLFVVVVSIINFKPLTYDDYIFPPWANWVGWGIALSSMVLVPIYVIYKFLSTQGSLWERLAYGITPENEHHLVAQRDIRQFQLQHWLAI

Structure (SMILES) | IC50 [1, 7] [µM] | IC50 [1, 8] [µM] | AD50 Locomotion [2] | IC50 [3, 9] [µM] | IC50 [4] [µM] | IC50 [5, 10] [µM] | IC50 [6] [µM] | ED50 [2] [mg/kg] | selectivity for inhibition of NE over DA uptake [5] [fold] | IC50 [3] [µM] | IC50 [5] [µM] | selectivity for inhibition of NE uptake over α3β4*-nAChR function [5] [fold] | selectivity for inhibition of NE uptake over α4β2-nAChR function [5] [fold]
Cc1cccc([C@]2(O)OCC(C)(C)N[C@H]2C)c1 [Compound 4e, (2S,3S)-2-(m-Tolyl)-3,5,5-trimethylmorpholin-2-ol] | 33 | > 33 | IA (IA: AD50 > 15 mg/kg) | 6 | 64 | 1.13 ± 0.02 | 8.6 | – | – | – | – | – | –
Cc1ccc([C@]2(O)OCC(C)(C)N[C@H]2C)cc1 [Compound 4j, (2S,3S)-3,5,5-Trimethyl-2-(4-methylphenyl)morpholin-2-ol] | 20 | – | IA (IA: AD50 > 15 mg/kg) | 12 | 62 | 1.68 ± 0.33 | 8.6 | – | – | – | – | – | –
CC[C@@H]1NC(C)(C)CO[C@@]1(O)c1cccc(Cl)c1 [Compound 4s, (2S,3S)-2-(3-Chlorophenyl)-3-ethyl-5,5-dimethylmorpholin-2-ol] | 14 | – | – | 2.9 | 16 | 0.043 | 4.3 | 10.3 | 5 | – | – | – | –
C[C@@H]1NC(C)(C)CO[C@@]1(O)c1ccc(F)cc1 [Compound 4h, (2S,3S)-2-(4-Fluorophenyl)-3,5,5-trimethylmorpholin-2-ol] | 69 | – | IA (IA: AD50 > 15 mg/kg) | 12 | > 100 | 3.8 ± 0.6 | 20 | – | – | – | – | – | –
C[C@@H]1NC(C)(C)CO[C@@]1(O)c1cccc2ccccc12 [Compound 4q, (2S,3S)-2-(Naphthalen-1-yl)-3,5,5-trimethylmorpholin-2-ol] | 6.6 | – | IA (IA: AD50 > 15 mg/kg) | 9 | 13 | 0.411 ± 0.053 | 5.2 | – | 24 | – | – | – | –
C[C@@H]1NC(C)(C)CO[C@@]1(O)c1ccc(Cl)cc1 [Compound 4i, (2S,3S)-2-(4-Chlorophenyl)-3,5,5-trimethylmorpholin-2-ol] | 19 | – | IA (IA: AD50 > 15 mg/kg) | 9.2 | 33 | 0.83 ± 0.09 | 5.1 | – | – | – | – | – | –
C[C@@H]1N(C)C(C)(C)CO[C@@]1(O)c1ccc(Cl)cc1 [Compound 4v, (2S,3S)-2-(4-Chlorophenyl)-3,4,5,5-tetramethylmorpholin-2-ol] | 43 | > 33 | IA (IA: AD50 > 15 mg/kg) | 42 | 91 | 0.527 ± 0.104 | 4.6 | – | – | – | – | – | –
C[C@@H]1NC(C)(C)CO[C@@]1(O)c1ccc(-c2ccccc2)cc1 [Compound 4l, (2S,3S)-2-Biphenyl-4-yl-3,5,5-trimethylmorpholin-2-ol] | 5.9 | 5.9 to 19 | IA (IA: AD50 > 15 mg/kg) | 1.8 | 8.1 | 10.3 | 1.3 | – | – | < 10 | – | – | –
COc1ccc([C@]2(O)OCC(C)(C)N[C@H]2C)cc1 [Compound 4k, (2S,3S)-2-(4-Methoxyphenyl)-3,5,5-trimethylmorpholin-2-ol] | 25 | – | IA (IA: AD50 > 15 mg/kg) | 27 | 72 | > 10 | 11 | – | – | – | – | – | –
C[C@@H]1NC(C)(C)CO[C@@]1(O)c1cccc(F)c1 [Compound 4c, (2S,3S)-2-(3-Fluorophenyl)-3,5,5-trimethylmorpholin-2-ol] | – | > 100 | IA (IA: AD50 > 15 mg/kg) | 1.3 | > 100 | 0.74 ± 0.15 | 15 | – | – | – | – | – | –
CC1NC(C)(C)COC1(O)c1ccc(Cl)c(Cl)c1 (racemic) [Compound 4n, 2-(3,4-Dichlorophenyl)-3,5,5-trimethylmorpholin-2-ol] | – | 7.2 | IA (IA: AD50 > 15 mg/kg) | 20 | 14 | – | – | – | – | – | 0.114 | ~23 | –
C[C@@H]1NC(C)(C)CO[C@@]1(O)c1cc(F)cc(F)c1 [Compound 4o, (2S,3S)-2-(3,5-Difluorophenyl)-3,5,5-trimethylmorpholin-2-ol] | 23 | – | IA (IA: AD50 > 15 mg/kg) | 6.3 | 62 | 0.151 ± 0.043 | 11 | – | – | < 10 | – | – | 42
C[C@@H]1NC(C)(C)CO[C@@]1(O)c1ccc2ccccc2c1 [Compound 4r, (2S,3S)-2-(Naphthalen-2-yl)-3,5,5-trimethylmorpholin-2-ol] | 11 | – | IA (IA: AD50 > 15 mg/kg) | 6.5 | 11 | 1.57 ± 0.43 | 2 | – | – | – | – | 1.3 | ~4
CC1NC(C)(C)COC1(O)c1cc(Cl)cc(Cl)c1 (racemic) [Compound 4p, 2-(3,5-Dichlorophenyl)-3,5,5-trimethylmorpholin-2-ol] | – | 7.2 | – | 11 | 18 | 2.44 ± 0.73 | – | 1.9 | – | – | – | 1.6 | –
